Molecules are shown by their SMILES.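 Interpolation was linear, between the two tested concentrations surrounding the appropriate level; five concentrations were tested over 48 hours in 96-well plates. Here, GI50 denotes the concentration required for 50% inhibition of growth.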 Calls of active or inactive are those of the source. Cut-off read from the data, not from the text of the source: active = GI50 up to about 1.1 µM and inactive = higher.

Here are results for 10 molecules from ChEMBL document CHEMBL1201862, “PubChem BioAssay data set” (2004).

Some test systems named below: HOP-18; KM-20L2; DMS-114; DMS-273; RXF 631; DLD-1; XF498; BT-549; SNB-78.
Holding throughout (test): NCI tumour cell line growth inhibition, 48 h

For `COC(=O)C1=C(C(=O)OC)C2C=CC1C1C(Cl)=C(Cl)C21` (stereo not drawn), the GI50 with HOP-18, with KM-20L2, in the test on DMS-114, in the test on DMS-273, in the test with RXF 631 and with DLD-1 was > 100 µM (inactive) throughout.
Consider `COc1ccc2nc3ccccc3c(NCCCN(C)CCCl)c2c1`, for which the GI50 was 0.17 µM (active) with KM-20L2; 0.311 µM (active) in the test on DMS-114; 0.153 µM (active) in the test with DMS-273; 0.212 µM (active) with XF498; 1.22 µM (inactive) with BT-549; 0.23 µM (active) in the test on RXF 631. In addition, the GI50 in the test on SNB-78 was 0.156 µM (active); in the test on DLD-1, 0.233 µM (active).
For the molecule `CC1(C)OC(=O)C(=C2CC(c3ccccc3)c3ccccc32)C(=O)O1` (stereo not drawn), the GI50 with HOP-18, in the test on KM-20L2, in the test on DMS-114, in the test on RXF 631, with SNB-78 and with DLD-1 was > 100 µM (inactive) throughout.
Turning to `CC(C)N1CC2CC(CN(C(=O)c3ccccc3)C2)C1.[O-][Cl+3]([O-])([O-])O`, the GI50 in the test with HOP-18, with KM-20L2, with DMS-114, in the test with DMS-273, with XF498 and with RXF 631 was > 100 µM (inactive) in each case.
As to `COc1cc2cc(OC)c3cc4c(cc3c2c(OC)c1OC)OCO4`, the GI50 with HOP-18 is 67.6 µM (inactive); in the test on KM-20L2 it was 11.6 µM (inactive); in the test with DMS-114, 35.7 µM (inactive); in the test on DMS-273, 15.1 µM (inactive); in the test with RXF 631, 32.5 µM (inactive); in the test with SNB-78, 50.2 µM (inactive). In addition, the GI50 in the test with DLD-1 is 18.1 µM (inactive).
For `O=C(c1ccc(Cl)cc1)c1ccc(OCCCCCCCCCCOc2ccc(C(=O)c3ccc(Cl)cc3)cc2)cc1`, the GI50 in the test on KM-20L2, with DMS-114, in the test on DMS-273, in the test on RXF 631, in the test on SNB-78 and with DLD-1 was > 100 µM (inactive) each time.
Turning to `Cn1c2ccccc2c2[nH]cc3nc4ccccc4c-3c21`, the GI50 with KM-20L2 is 16.7 µM (inactive); with DMS-114 it was 22.9 µM (inactive); in the test on DMS-273 it was 16.2 µM (inactive); in the test on XF498 it was 17.4 µM (inactive); in the test with RXF 631 it was 29.5 µM (inactive); with SNB-78 it was 24.5 µM (inactive). The GI50 in the test on DLD-1 was > 100 µM (inactive).
For the molecule `Cc1ccc(C)c(NC(=O)C(=O)CC(=O)c2cccc3ccccc23)c1`, the GI50 with HOP-18, in the test on KM-20L2, in the test on DMS-114, in the test on DMS-273, with RXF 631 and with SNB-78 was > 100 µM (inactive) in each case. Further, the GI50 in the test with DLD-1 was > 100 µM (inactive).
Consider `NC(CS)C(=O)NCCNc1ccc(NCCNC(=O)C(N)CS)c2c1C(=O)c1c(O)ccc(O)c1C2=O` (stereo not drawn), for which the GI50 in the test with HOP-18 was 0.439 µM (active); in the test with KM-20L2, 0.0618 µM (active); with DMS-114 it was 0.00143 µM (active); in the test with DMS-273, 0.00168 µM (active); in the test on XF498, 0.0138 µM (active); with BT-549 it was 0.327 µM (active). In addition, the GI50 with SNB-78 was 0.214 µM (active); in the test on DLD-1, 0.121 µM (active).
Take `O=C(N/C(=C\c1ccc(F)cc1)c1nc2ccccc2[nH]1)c1ccccc1`: the GI50 in the test on HOP-18, in the test on KM-20L2, with DMS-114, with XF498, in the test on RXF 631 and with SNB-78 was > 100 µM (inactive) each time. In the test on DLD-1, the GI50 was > 100 µM (inactive).
